Experiments:
[1] = target: KRAS WT (Homo sapiens (Human), UniProt P01116); assay: KRAS WT Biochemical Assay, BODIPY-GDP Exchange TR-FRET (Example 502; 0.06 nM KRAS WT, 15 nM GDP, 300 nM SOS1, 120-minute incubation); conditions: read-out: KRas HTRF IC50
Method: Example 502: KRAS WT Biochemical Assay, BODIPY-GDP Exchange TR-FRET. Biochemical compound potencies are assessed by evaluating inhibition of SOS1-mediated nucleotide exchange in KRAS WT. In this assay, the SOS1-promoted exchange of fluorescently-labeled GDP (BOPIDY-GDP) is monitored by time-resolved fluorescence resonance energy transfer (TR-FRET). Compounds solubilized in DMSO are dispensed as concentration series into 384-well white assay plates. A preformed complex of 0.06 nM biotin-tagged recombinant human KRAS WT, 15 nM GDP and 0.06 nM terbium-labeled streptavidin (CisBIO) prepared in 10 uL/well assay buffer (20 mM HEPES, pH 7.5, 50 mM NaCl, 10 mM MgCl2, 0.01% Tween-20 and 1 mM dithiothreitol) is added and allowed to incubate for 10-minutes at room temperature. The reaction is initiated with the addition of 5 uL 300 nM recombinant human SOS1 and 300 nM BODIPY-GDP in assay buffer. After a 120-minute incubation, the fluorescence is measured with excitation at 337 nm and emission at 490 and 520 nm. The TR-FRET ratio is determined as the fluorescence at 520 nm divided by the fluorescence at 490 nm multiplied by 10,000. The results are normalized to percent inhibition based on control samples: DMSO (0% inhibition) and control compound at a concentration that inhibits completely (100% inhibition). The normalized TR-FRET results are plotted against compound concentration, and the data are fit to a 4-parameter Hill equation to determine the IC50 values.

[2] = target: KRAS G12D (Homo sapiens (Human), UniProt P01116, G12D); assay: KRAS G12D LoEnz Biochemical Assay, BODIPY-GDP Exchange TR-FRET (SOS1-mediated nucleotide exchange); conditions: read-out: KRas (G12D) GDP HTRF IC50
Chain of KRAS G12D (P01116-2 other isoform, or with tags, fused parts or gaps G12D): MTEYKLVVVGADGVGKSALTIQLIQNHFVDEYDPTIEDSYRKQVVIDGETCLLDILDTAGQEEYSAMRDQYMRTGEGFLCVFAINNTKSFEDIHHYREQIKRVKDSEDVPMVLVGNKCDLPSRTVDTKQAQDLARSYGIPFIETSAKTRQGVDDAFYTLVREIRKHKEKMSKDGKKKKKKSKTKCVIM

Chain of KRAS WT (P01116-2 other isoform, or with tags, fused parts or gaps): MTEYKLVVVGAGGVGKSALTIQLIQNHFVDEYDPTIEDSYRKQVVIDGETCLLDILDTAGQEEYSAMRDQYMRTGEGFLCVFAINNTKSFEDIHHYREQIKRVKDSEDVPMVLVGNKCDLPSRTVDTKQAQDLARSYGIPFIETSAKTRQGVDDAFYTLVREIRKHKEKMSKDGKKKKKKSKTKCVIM

Compound | IC50 [1] | IC50 [2]
Cc1c(F)c(N)cc(-c2nc3c4c(nc(OC[C@@]56CCCN5C[C@H](F)C6)nc4c2F)N2C[C@H]4CC[C@H](N4)[C@H]2[C@H](C)O3)c1C=O [Compound 59, 4-Amino-3-fluoro-6-((5S,5aS,6S,9R)-1-fluoro-12-(((2R,7aS)-2-fluorotetrahydro-1H-pyrrolizin-7a(5H)-yl)methoxy)-5-methyl-5a,6,7,8,9,10-hexahydro-5H-4-oxa-3,10a,11,13,14-pentaaza-6,9-methanonaphtho[1,8-ab]heptalen-2-yl)-2-methylbenzaldehyde] | 51.4 nM | 0.31 nM
Cc1c(F)c(N)cc(-c2nc3c4c(nc(OC[C@@H]5CO[C@H]6CC[N@]5C6)nc4c2F)N2C[C@H]4CC[C@H](N4)[C@H]2[C@H](C)O3)c1C(F)(F)F [Compound 135, 5-((5S,5aS,6S,9R)-12-(((1R,2S,5S)-4-Oxa-1-azabicyclo[3.2.1]octan-2-yl)methoxy)-1-fluoro-5-methyl-5a,6,7,8,9,10-hexahydro-5H-4-oxa-3,10a,11,13,14-pentaaza-6,9-methanonaphtho[1,8-ab]heptalen-2-yl)-2-fluoro-3-methyl-4-(trifluoromethyl)aniline] | 143 nM | 0.71 nM
Cc1c(F)c(N)cc(-c2nc3c4c(nc(OC[C@]56COC[C@@H]5CCN6C)nc4c2F)N2C[C@H]4CC[C@H](N4)[C@H]2[C@H](C)O3)c1C(F)(F)F (single isomer, unassigned) [134 (isomer 2)] | 38.1 nM | 0.19 nM
Cc1cc(N)cc(-c2nc3c4c(nc(OC[C@]56CCCN5CC(F)(F)C6)nc4c2F)N2C[C@H]4CC[C@H](N4)[C@H]2[C@H](C)O3)c1C(F)(F)F [Compound 69, 3-((5S,5aS,6S,9R)-12-(((R)-2,2-Difluorotetrahydro-1H-pyrrolizin-7a(5H)-yl)methoxy)-1-fluoro-5-methyl-5a,6,7,8,9,10-hexahydro-5H-4-oxa-3,10a,11,13,14-pentaaza-6,9-methanonaphtho[1,8-ab]heptalen-2-yl)-5-methyl-4-(trifluoromethyl)aniline] | 40.9 nM | 0.31 nM
C#Cc1c(F)ccc2cc(N)cc(-c3nc4c5c(nc(OC[C@]67CCN6CC(F)(F)C7)nc5c3F)N3C[C@H]5CC[C@H](N5)[C@H]3[C@H](C)O4)c12 [Compound 110, 4-((5S,5aS,6S,9R)-12-(((R)-3,3-Difluoro-1-azabicyclo[3.2.0]heptan-5-yl)methoxy)-1-fluoro-5-methyl-5a,6,7,8,9,10-hexahydro-5H-4-oxa-3,10a,11,13,14-pentaaza-6,9-methanonaphtho[1,8-ab]heptalen-2-yl)-5-ethynyl-6-fluoronaphthalen-2-amine] | 7.75 nM | 0.15 nM
CCc1cccc2nc(N)cc(-c3nc4c5c(nc(OC[C@@]67CCCN6C[C@H](F)C7)nc5c3F)N3C[C@H]5CC[C@H](N5)[C@H]3[C@H](C)O4)c12 [Compound 179, 5-Ethyl-4-((5S,5aS,6S,9R)-1-fluoro-12-(((2R,7aS)-2-fluorotetrahydro-1H-pyrrolizin-7a(5H)-yl)methoxy)-5-methyl-5a,6,7,8,9,10-hexahydro-5H-4-oxa-3,10a,11,13,14-pentaaza-6,9-methanonaphtho[1,8-ab]heptalene-2-yl)quinolin-2-amine] | 659 nM | 6.64 nM
Cc1c(F)c(N)cc(-c2nc3c4c(nc(OC[C@@]56C[C@H](F)CN5C[C@H](F)C6)nc4c2F)N2C[C@H]4CC[C@H](N4)[C@H]2[C@H](C)O3)c1C(F)(F)F [Compound 142, 5-((5S,5aS,6S,9R)-12-(((2R,6S,7as)-2,6-Difluorotetrahydro-1H-pyrrolizin-7a(5H)-yl)methoxy)-1-fluoro-5-methyl-5a,6,7,8,9,10-hexahydro-5H-4-oxa-3,10a,11,13,14-pentaaza-6,9-methanonaphtho[1,8-ab]heptalen-2-yl)-2-fluoro-3-methyl-4-(trifluoromethyl)aniline] | 33.2 nM | 0.2 nM
Cc1c(F)c(N)cc(-c2nc3c4c(nc(OCC5(CN6CCOC[C@H]6C)CC5)nc4c2F)N2C[C@H]4CC[C@H](N4)[C@H]2[C@H](C)O3)c1C(F)(F)F [Compound 129, 2-Fluoro-5-((5S,5aS,6S,9R)-1-fluoro-5-methyl-12-((1-(((R)-3-methylmorpholino)methyl)cyclopropyl)methoxy)-5a,6,7,8,9,10-hexahydro-5H-4-oxa-3,10a,11,13,14-pentaaza-6,9-methanonaphtho[1,8-ab]heptalen-2-yl)-3-methyl-4-(trifluoromethyl)aniline] | 3.87 nM | 0.18 nM
Cc1nc(N)cc(-c2nc3c4c(nc(OC[C@@H]5CC[C@H]6COCCN65)nc4c2F)N2C[C@H]4CC[C@H](N4)[C@H]2[C@H](C)O3)c1C(F)(F)F [Compound 112, 4-((5S,5aS,6S,9R)-1-fluoro-12-(((6S,8aS)-hexahydro-1H-pyrrolo[2,1-c][1,4]oxazin-6-yl)methoxy)-5-methyl-5a,6,7,8,9,10-hexahydro-5H-4-oxa-3,10a,11,13,14-pentaaza-6,9-methanonaphtho[1,8-ab]heptalen-2-yl)-6-methyl-5-(trifluoromethyl)pyridin-2-amine] | 62.8 nM | 0.48 nM
Cc1c(F)c(N)cc(-c2nc3c4c(nc(OCC56C[C@@H](F)CN5C[C@H](F)C6)nc4c2F)N2C[C@H]4CC[C@H](N4)[C@H]2[C@H](C)O3)c1C(F)(F)F [Compound 140, 5-((5S,5aS,6S,9R)-12-(((2R,6R)-2,6-Difluorotetrahydro-1H-pyrrolizin-7a(5H)-yl)methoxy)-1-fluoro-5-methyl-5a,6,7,8,9,10-hexahydro-5H-4-oxa-3,10a,11,13,14-pentaaza-6,9-methanonaphtho[1,8-ab]heptalen-2-yl)-2-fluoro-3-methyl-4-(trifluoromethyl)aniline] | 18.4 nM | 0.14 nM
C[C@@H]1Oc2nc(-c3c(C(F)(F)F)cc(F)c(N)c3F)c(F)c3nc(OC[C@@]45CCCN4C[C@H](F)C5)nc(c23)N2C[C@H]3CC[C@H](N3)[C@@H]12 [Compound 90, 2,6-Difluoro-3-((5S,5aS,6S,9R)-1-fluoro-12-(((2R,7aS)-2-fluorotetrahydro-1H-pyrrolizin-7a(5H)-yl)methoxy)-5-methyl-5a,6,7,8,9,10-hexahydro-5H-4-oxa-3,10a,11,13,14-pentaaza-6,9-methanonaphtho[1,8-ab]heptalen-2-yl)-4-(trifluoromethyl)aniline] | 71.6 nM | 0.47 nM
Cc1c(F)c(N)cc(-c2nc3c4c(nc(OCC5(CN6C[C@H]7C[C@@H]6CO7)CC5)nc4c2F)N2C[C@H]4CC[C@H](N4)[C@H]2[C@H](C)O3)c1C(F)(F)F [Compound 170, 5-((5S,5aS,6S,9R)-12-((1-(((1R,4R)-2-Oxa-5-azabicyclo[2.2.1]heptan-5-yl)methyl)cyclopropyl)methoxy)-1-fluoro-5-methyl-5a,6,7,8,9,10-hexahydro-5H-4-oxa-3,10a,11,13,14-pentaaza-6,9-methanonaphtho[1,8-ab]heptalene-2-yl)-2-fluoro-3-methyl-4-(trifluoromethyl)aniline] | 2.16 nM | 0.09 nM
Cc1c(F)c(N)cc(-c2nc3c4c(nc(OCCCN5CCOCC5)nc4c2F)N2C[C@H]4CC[C@H](N4)[C@H]2[C@H](C)O3)c1C(F)(F)F [Compound 138, 2-Fluoro-5-((5S,5aS,6S,9R)-1-fluoro-5-methyl-12-(3-morpholinopropoxy)-5a,6,7,8,9,10-hexahydro-5H-4-oxa-3,10a,11,13,14-pentaaza-6,9-methanonaphtho[1,8-ab]heptalen-2-yl)-3-methyl-4-(trifluoromethyl)aniline] | 115 nM | 0.42 nM

Source: patent US20240025919A1, “AZA-TETRACYCLIC OXAZEPINE COMPOUNDS AND USES THEREOF” (Genentech, Inc., priority 2022, published 2024)
